Source: patent EP2431387A1, “A raft deficient yeast expression system for the production of recombinant membrane proteins” (Centre National de la Recherche Scientifique (C.N.R.S), priority 2010, dated 2012)
Read-outs that look alike come from different tables or passages of the source. Values belong to the molecule of their own block, whether it stands above or below them.

Experiments:
MTR1A [1] = molecular target: T1, MTR1A (Homo sapiens, UniProt P48039)
Description: (§1) For saturation binding assays, increasing concentrations of radioactive ligands ranging from 1 to 30 nM were added to 10 µg of proteins diluted in binding buffer (30 mM HEPES, pH 7.7, 0.15 M NaCl and 0.1% BSA). […] Non-specific binding was determined by the addition of 10 µM « cold » ligands using spiperone, prazozine, yohimbine and melatonin for DRD2, ADRA1, ADR2B and MTR1A, respectively. After 1-h incubation at RT, the reaction was terminated by rapid filtration of the samples through GF/B filters presoaked in 1 % polyethylenimine. The filters were washed 3 times with ice-cold buffer (Tris-HCI 50 mM, pH 7.4), and the radioactivity was measured by liquid-scintillation counting. The equilibrium dissociation constant, KD and the maximal number of binding sites, Bmax for radioligands were determined. The data were expressed as the mean ± standard error (SE) for at least three independant experiments performed in triplicate. Data were fitted through non-linear regression analysis with the one-site saturation binding model using the Prism 4 program of GraphPad.

MTR1A [2] = molecular target: T1, MTR1A; remark: listed apart in the source
Description: as §1
(§2) Saturation binding experiments were performed on CHAPS/CHS solubilized receptors the same way than described in Example 4 in order to test receptor activity and stability (FIG.5).

ADRA1A [3] = molecular target: T2, ADRA1A (Homo sapiens, UniProt P35348)
T2 sequence (P35348 whole entry): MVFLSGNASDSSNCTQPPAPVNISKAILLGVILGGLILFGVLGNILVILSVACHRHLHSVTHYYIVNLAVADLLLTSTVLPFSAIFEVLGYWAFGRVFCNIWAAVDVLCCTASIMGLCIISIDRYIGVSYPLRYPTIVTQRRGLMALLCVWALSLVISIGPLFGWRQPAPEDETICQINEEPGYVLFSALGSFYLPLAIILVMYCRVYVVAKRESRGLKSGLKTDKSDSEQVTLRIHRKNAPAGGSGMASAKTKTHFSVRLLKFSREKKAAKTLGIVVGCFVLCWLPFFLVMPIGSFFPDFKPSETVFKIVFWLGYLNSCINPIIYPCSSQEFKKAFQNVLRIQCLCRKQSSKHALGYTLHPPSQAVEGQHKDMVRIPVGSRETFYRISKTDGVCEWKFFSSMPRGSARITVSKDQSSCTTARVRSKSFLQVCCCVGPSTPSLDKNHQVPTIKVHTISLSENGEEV
Description: as §1

ADRA1A [4] = molecular target: T2, ADRA1A; settings: ADRA1A solubilized (CHAPS/CHS) from membranes of erg6 cells
Description: as §1, §2

DRD2 [5] = molecular target: T3, DRD2 (Homo sapiens, UniProt P14416); assay: Saturation radioligand binding assay on CHAPS/CHS solubilized receptors; settings: DRD2 solubilized (CHAPS/CHS) from membranes of erg6 cells
T3 sequence (P14416 whole entry): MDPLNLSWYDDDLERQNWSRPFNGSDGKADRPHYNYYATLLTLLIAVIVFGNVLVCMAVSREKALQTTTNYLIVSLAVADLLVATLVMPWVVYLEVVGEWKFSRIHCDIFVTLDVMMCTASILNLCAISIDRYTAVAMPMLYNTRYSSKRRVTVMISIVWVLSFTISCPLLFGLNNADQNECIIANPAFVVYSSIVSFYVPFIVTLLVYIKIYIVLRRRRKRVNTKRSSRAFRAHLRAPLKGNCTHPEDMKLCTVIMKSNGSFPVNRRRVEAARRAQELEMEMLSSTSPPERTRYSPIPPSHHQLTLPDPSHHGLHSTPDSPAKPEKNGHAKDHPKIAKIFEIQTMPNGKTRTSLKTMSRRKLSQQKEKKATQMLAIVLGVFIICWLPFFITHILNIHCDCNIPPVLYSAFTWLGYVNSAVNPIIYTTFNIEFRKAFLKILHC
Description: as §1, §2

DRD2 [6] = molecular target: T3, DRD2; assay: Saturation radioligand binding assay on crude membranes of P. pastoris cells; settings: DRD2 expressed in membranes of erg6 cells
Description: as §1

T1 sequence (P48039 whole entry): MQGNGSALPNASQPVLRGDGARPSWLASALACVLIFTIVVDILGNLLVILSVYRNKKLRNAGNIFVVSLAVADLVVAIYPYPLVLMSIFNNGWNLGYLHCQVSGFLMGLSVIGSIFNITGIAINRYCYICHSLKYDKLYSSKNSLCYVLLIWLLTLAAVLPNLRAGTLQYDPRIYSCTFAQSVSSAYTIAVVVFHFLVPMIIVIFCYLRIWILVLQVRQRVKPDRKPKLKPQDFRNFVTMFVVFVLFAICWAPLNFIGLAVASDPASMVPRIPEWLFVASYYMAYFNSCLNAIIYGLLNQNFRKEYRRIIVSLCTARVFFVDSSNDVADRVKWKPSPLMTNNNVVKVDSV

Compound: COc1ccc2[nH]cc(CCNC(C)=O)c2c1 [[3H]-Melatonin]
Bmax (MTR1A [1]; MTR1A expressed in membranes of WT cells): 4.86 ± 0.38 pmol/mg
Bmax (MTR1A [1]; MTR1A expressed in membranes of erg6 cells): 1.35 ± 0.30 pmol/mg
Bmax (MTR1A [2]; MTR1A solubilized (CHAPS/CHS) from membranes of WT cells): 2.91 ± 0.29 pmol/mg
Bmax (MTR1A [2]; MTR1A solubilized (CHAPS/CHS) from membranes of erg6 cells): 5.13 ± 0.32 pmol/mg

Bmax (ADRA1A [3]; ADRA1A expressed in membranes of WT cells): 15.72 ± 2.09 pmol/mg
Bmax (ADRA1A [3]; ADRA1A expressed in membranes of erg6 cells): 35.74 ± 1.11 pmol/mg
Bmax (ADRA1A [4]): 11.34 ± 0.71 pmol/mg
Compound: COc1cc2nc(N3CCN(C(=O)c4ccco4)CC3)nc(N)c2cc1OC [[3H]-Prazozine]

Compound: O=C(CCCN1CCC2(CC1)C(=O)NCN2c1ccccc1)c1ccc(F)cc1 [[3H]-Spiperone]
Bmax (DRD2 [5]): 42.79 ± 4.71 pmol/mg
Bmax (DRD2 [6]): 62.20 ± 16.42 pmol/mg
